The record followed here is ChEMBL document CHEMBL1126062, “Benzofuran bioisosteres of hallucinogenic tryptamines” (J Med Chem, 1992).

The term Ki denotes a measure of affinity in units of concentration, obtained from inhibition or displacement. A high value points to weaker binding.

Experiment [1] addresses T1, 5-hydroxytryptamine receptor 1A (Rattus norvegicus, UniProt P19327).
T1 sequence (P19327 whole entry): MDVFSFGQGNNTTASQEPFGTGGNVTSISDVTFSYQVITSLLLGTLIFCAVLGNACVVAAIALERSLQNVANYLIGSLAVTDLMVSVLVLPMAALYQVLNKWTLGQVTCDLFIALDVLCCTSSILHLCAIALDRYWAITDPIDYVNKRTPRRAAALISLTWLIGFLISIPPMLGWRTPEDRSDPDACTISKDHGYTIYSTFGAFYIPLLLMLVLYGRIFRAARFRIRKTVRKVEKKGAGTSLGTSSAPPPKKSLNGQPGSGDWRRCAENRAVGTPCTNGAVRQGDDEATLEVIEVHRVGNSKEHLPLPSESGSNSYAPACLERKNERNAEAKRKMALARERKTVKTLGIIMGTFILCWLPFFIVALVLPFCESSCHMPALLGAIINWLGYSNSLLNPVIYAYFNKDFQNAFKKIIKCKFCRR
Briefly: Affinity on 5-hydroxytryptamine 1A receptor labeled by [3H]8-OH-DPAT.

For experiment [2], the target named is Serotonin 2 (5-HT2) receptor (Rattus norvegicus, UniProt P30994+P08909+P14842). Briefly: Affinity on 5-hydroxytryptamine 2 receptor labeled by [125I]DOI. It is filed as protein assay.

On to `COc1ccc2occ(CCN(C)C)c2c1`, for which the results for the Ki in experiment [1] and in experiment [2] were 101 nM and 95 nM, respectively. For `COc1ccc2occ(CC(C)N)c2c1` (racemic), in that order: 445 nM and 42 nM. For `COc1ccc2occ(CC(C)N)c2c1` (stereo in doubt; 4) the same measures were 779 nM and 27.1 nM. `COc1ccc2[nH]cc(CCN(C)C)c2c1` [MEBUFOTENIN]: the Ki in experiment [1] amounted to 69 nM.
